Assay results as given in patent US20260199365A1, “BIS-SULFONAMIDE SHIP1 ACTIVATORS” (The Research Foundation for the State University of New York, priority 2022, published 2026).

Experiments:
[1] = biological target: T1, recombinant human truncated SHIP1 (tSHIP1) (Homo sapiens, UniProt Q92835); assay: Malachite Green Phosphatase Release Assay (SHIP1 phosphatase activity); assay type: biochemical; details: for SHIP1 activation, increase in the malachite green assay: initial testing
T1 construct: tSHIP1 (SHIP1, residues 397-864) was amplified from pET24TEV-tSHIP1; His tag; made in house; host or cells: E. coli BL21
T1 sequence (Q92835 397-864): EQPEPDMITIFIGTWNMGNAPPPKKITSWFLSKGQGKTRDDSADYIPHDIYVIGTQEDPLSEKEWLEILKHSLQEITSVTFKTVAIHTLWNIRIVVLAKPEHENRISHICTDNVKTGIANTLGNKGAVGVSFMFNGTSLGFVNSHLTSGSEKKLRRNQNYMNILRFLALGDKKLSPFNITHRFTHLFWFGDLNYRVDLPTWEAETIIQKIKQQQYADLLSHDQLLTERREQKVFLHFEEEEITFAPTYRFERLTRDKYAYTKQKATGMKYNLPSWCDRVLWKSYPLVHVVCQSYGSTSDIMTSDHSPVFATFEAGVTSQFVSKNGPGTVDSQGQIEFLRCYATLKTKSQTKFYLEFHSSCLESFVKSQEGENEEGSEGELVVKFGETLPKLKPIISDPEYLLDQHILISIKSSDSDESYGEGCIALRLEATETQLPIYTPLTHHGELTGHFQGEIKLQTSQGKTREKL
Outline: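 Truncated SHIP1 (residues 397-864, His-tagged, E. coli-expressed) was preincubated 2 min at room temperature with compound in pH 7.4 Hepes buffer with MgCl2/EDTA. 100 μM PI(3,4,5)P3-diC8 was then added and the reaction run 20 min at 37 °C. Phosphate release was read with malachite green at 620 nm, as % of DMSO control activity.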

C2-less SHIP1 protein = assay: Agonism with SHIP1 protein lacking the C2 domain; assay type: biochemical; details: C2 domain of the protein deleted
From the text: (§1) New small molecule SHIP1 activators are needed to explore the effects of these molecules in IBD and AD model systems to define the role of SHIP in these disorders. […] The K306 structure is related to a series of sulfonamide based endothelial lipase inhibitors. As the molecule came from screening, no information was available about structure activity relationships in this SHIP1 activator. Sulfonamides have been used previously as phosphate mimics in the development of phosphatase inhibitors however, so it is possible that one of the sulfonamides in the K306 structure is mimicking the one of the phosphates on PI(3,4)P2, the endogenous ligand for allosteric activation of SHIP1. […] Given that K306 provides a new class of SHIP1 activators with a unique binding site that could have implications in Crohn's disease and Alzheimer's disease, synthetic studies were initiated on the structure.

microglia = assay: Phagolysosomal degradation of synaptosomes and dead neurons by microglia; assay type: cell-based; details: SHIP1-dependent manner
From the text: as §1

Phosphatase activity in the Malachite Green Assay, analog concentration 125 μM ([1]; 125 μM analog, 100 μM PI(3,4,5)P3-diC8 substrate, normalized to vehicle control (DMSO) = 100%): 95%
Phosphatase activity in the Malachite Green Assay, analog concentration 250 μM ([1]; 250 μM analog, 100 μM PI(3,4,5)P3-diC8 substrate, normalized to vehicle control (DMSO) = 100%): 106%
Phosphatase activity in the Malachite Green Assay, analog concentration 500 μM ([1]; 500 μM analog, 100 μM PI(3,4,5)P3-diC8 substrate, normalized to vehicle control (DMSO) = 100%, >100% activation, <100% inhibition): 133%
SHIP1 activation, increase in the malachite green assay ([1]; tested at 250 μM): 6%
SHIP1 activation, increase in the malachite green assay ([1]; tested at 500 μM): 33%
Compound: Cc1sc(S(=O)(=O)N2CCSCC2)cc1NC(=O)CNS(=O)(=O)c1ccc(F)cc1 [Compound K306, 2-(4-Fluorobenzenesulfonamido)-N-[2-methyl-5-(thiomorpholine-4-sulfonyl)thiophen-3-yl]acetamide]
Agonism with C2-less SHIP1 protein (C2-less SHIP1 protein): maintained agonism
Phagolysosomal degradation of synaptosomes and dead neurons by microglia (microglia): enhance phagolysosomal degradation
